Assays:
[1] = Acute toxicity in rabbits; conditions: rabbit, in vivo, oral
in vivo = conditions: rat, po
Acute toxicity in rats = conditions: rat, in vivo, topical or ocular

Question: For `S=c1[nH]c2cc(Cl)c(Oc3ccc(Cl)cc3Cl)cc2[nH]1` [Example 1/2, 5-chloro-6-(2',4'-dichlorophenoxy)-2H-1,3-dihydro-benzimidazole-2-thione], which LD50 [1] is on record?
Answer: Its LD50 is > 6000 mg/kg.

Question: And the LD50 (in vivo)?
Answer: Its LD50 is 3100 mg/kg.

Question: And the LD50 (Acute toxicity in rats)?
Answer: The LD50 was > 3000 mg/kg.

From patent US4205077A, “Benzimidazole sulphides as anthelmintic agents” (Ciba-Geigy Corporation, priority 1977, dated 1980)
